System: 439559-082-T-J2-PDC spheroid viability
Assay: Anticancer human tumor 439559-082-T-J2-PDC patient-derived colon adenocarcinoma cell line growth inhibition [POLQ]
Settings: spheroids with HUVEC and MSC; for IC50: curve of first compound; for viability, T/C: stronger effect = lower value
In short: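 PDC + HUVEC + MSC complex spheroids; POLQ inhibitors ± partner drugs; top conc. at/near clinical Cmax, else 10 microM (SN-38 1 microM), half-log dilutions; 37 degrees C, 5% CO2.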

[1] = second compound 0.0316 µM, first compound 0.0316 µM
[2] = second compound 0.0316 µM, first compound 0.1 µM
[3] = second compound 0.0316 µM, first compound 0.316 µM
[4] = second compound 0.0316 µM, first compound 1 µM
[5] = second compound 0.0316 µM, first compound 3.16 µM
[6] = second compound 0.0316 µM, first compound 10 µM
[7] = second compound 0.1 µM, first compound 0.0316 µM
[8] = second compound 0.1 µM, first compound 0.1 µM
[9] = second compound 0.1 µM, first compound 0.316 µM
[10] = second compound 0.1 µM, first compound 1 µM
[11] = second compound 0.1 µM, first compound 3.16 µM
[12] = second compound 0.1 µM, first compound 10 µM
[13] = second compound 0.316 µM, first compound 0.0316 µM
[14] = second compound 0.316 µM, first compound 0.1 µM
[15] = second compound 0.316 µM, first compound 0.316 µM
[16] = second compound 0.316 µM, first compound 1 µM
[17] = second compound 0.316 µM, first compound 3.16 µM
[18] = second compound 0.316 µM, first compound 10 µM
[19] = second compound 1 µM, first compound 0.0316 µM
[20] = second compound 1 µM, first compound 0.1 µM
[21] = second compound 1 µM, first compound 0.316 µM
[22] = second compound 1 µM, first compound 1 µM
[23] = second compound 1 µM, first compound 3.16 µM
[24] = second compound 1 µM, first compound 10 µM
[25] = second compound 3.16 µM, first compound 0.0316 µM
[26] = second compound 3.16 µM, first compound 0.1 µM
[27] = second compound 3.16 µM, first compound 0.316 µM
[28] = second compound 3.16 µM, first compound 1 µM
[29] = second compound 3.16 µM, first compound 3.16 µM
[30] = second compound 3.16 µM, first compound 10 µM
[31] = second compound 10 µM, first compound 0.0316 µM
[32] = second compound 10 µM, first compound 0.1 µM
[33] = second compound 10 µM, first compound 0.316 µM
[34] = second compound 10 µM, first compound 1 µM
[35] = second compound 10 µM, first compound 3.16 µM
[36] = second compound 10 µM, first compound 10 µM
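Note: spheroids exposed to compounds for seven days before readout.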
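Throughout, for viability, T/C: 100% = DMSO vehicle control viability.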

CC(C)n1c(=O)n(C)c2cnc3cc(F)c(-c4ccc(OCCCN5CCCCC5)nc4)cc3c21 + Nc1ccc(C#CCN(C(=O)Cc2ncc(C(F)(F)F)cc2C(F)(F)F)c2ccc(F)cc2)nn1
IC50 (second compound 0.0316 µM): > 10 µM | IC50 (second compound 0.1 µM): > 10 µM | IC50 (second compound 0.316 µM): > 10 µM | IC50 (second compound 1 µM): > 10 µM | IC50 (second compound 3.16 µM): > 10 µM | IC50 (second compound 10 µM): > 10 µM | viability, T/C [1]: 88.2% | viability, T/C [2]: 110% | viability, T/C [3]: 113% | viability, T/C [4]: 105% | viability, T/C [5]: 110% | viability, T/C [6]: 96.7% | viability, T/C [7]: 106% | viability, T/C [8]: 113% | viability, T/C [9]: 104% | viability, T/C [10]: 122% | viability, T/C [11]: 102% | viability, T/C [12]: 112% | viability, T/C [13]: 103% | viability, T/C [14]: 100% | viability, T/C [15]: 102% | viability, T/C [16]: 109% | viability, T/C [17]: 110% | viability, T/C [18]: 105% | viability, T/C [19]: 111% | viability, T/C [20]: 99.7% | viability, T/C [21]: 101% | viability, T/C [22]: 116% | viability, T/C [23]: 89.3% | viability, T/C [24]: 113% | viability, T/C [25]: 98.1% | viability, T/C [26]: 103% | viability, T/C [27]: 101% | viability, T/C [28]: 115% | viability, T/C [29]: 102% | viability, T/C [30]: 126% | viability, T/C [31]: 102% | viability, T/C [32]: 102% | viability, T/C [33]: 110% | viability, T/C [34]: 96.7% | viability, T/C [35]: 127% | viability, T/C [36]: 117%

C#Cc1c(F)ccc2cc(O)cc(-c3ncc4c(N5CC6CCC(C5)N6)nc(OCC56CCCN5CC(F)C6)nc4c3F)c12 (stereo unspecified) + Cc1cccc(N(C)C(=O)C2C(O)CCN2c2nc(C)cc(C(F)(F)F)c2C#N)c1
IC50 (second compound 0.0316 µM): > 10 µM | IC50 (second compound 0.1 µM): > 10 µM | IC50 (second compound 0.316 µM): > 10 µM | IC50 (second compound 1 µM): > 10 µM | IC50 (second compound 3.16 µM): > 10 µM | IC50 (second compound 10 µM): 7.64 µM | viability, T/C [1]: 92% | viability, T/C [2]: 86.6% | viability, T/C [3]: 72.3% | viability, T/C [4]: 63.1% | viability, T/C [5]: 61.9% | viability, T/C [6]: 52.5% | viability, T/C [7]: 100% | viability, T/C [8]: 81.5% | viability, T/C [9]: 72.1% | viability, T/C [10]: 70.7% | viability, T/C [11]: 59.2% | viability, T/C [12]: 55% | viability, T/C [13]: 99% | viability, T/C [14]: 87.6% | viability, T/C [15]: 72% | viability, T/C [16]: 69.9% | viability, T/C [17]: 61.2% | viability, T/C [18]: 60.3% | viability, T/C [19]: 87.6% | viability, T/C [20]: 78.1% | viability, T/C [21]: 72.4% | viability, T/C [22]: 66.7% | viability, T/C [23]: 62% | viability, T/C [24]: 51.8% | viability, T/C [25]: 94.5% | viability, T/C [26]: 80.9% | viability, T/C [27]: 69.8% | viability, T/C [28]: 65.7% | viability, T/C [29]: 63.2% | viability, T/C [30]: 52.5% | viability, T/C [31]: 81.2% | viability, T/C [32]: 69.1% | viability, T/C [33]: 69% | viability, T/C [34]: 58.1% | viability, T/C [35]: 58.2% | viability, T/C [36]: 46.7%

COc1cc2cc(C(=O)CCC(=O)O)sc2cc1OC + Nc1ccc(C#CCN(C(=O)Cc2ncc(C(F)(F)F)cc2C(F)(F)F)c2ccc(F)cc2)nn1
IC50 (second compound 0.0316 µM): > 10 µM | IC50 (second compound 0.1 µM): > 10 µM | IC50 (second compound 0.316 µM): > 10 µM | IC50 (second compound 1 µM): > 10 µM | IC50 (second compound 3.16 µM): > 10 µM | IC50 (second compound 10 µM): > 10 µM | viability, T/C [1]: 99.2% | viability, T/C [2]: 99.3% | viability, T/C [3]: 96.7% | viability, T/C [4]: 95.8% | viability, T/C [5]: 105% | viability, T/C [6]: 97.5% | viability, T/C [7]: 95% | viability, T/C [8]: 107% | viability, T/C [9]: 93.1% | viability, T/C [10]: 99.2% | viability, T/C [11]: 93% | viability, T/C [12]: 98.7% | viability, T/C [13]: 94.5% | viability, T/C [14]: 101% | viability, T/C [15]: 97.4% | viability, T/C [16]: 93.4% | viability, T/C [17]: 98.1% | viability, T/C [18]: 91.8% | viability, T/C [19]: 96.2% | viability, T/C [20]: 103% | viability, T/C [21]: 90.3% | viability, T/C [22]: 93.6% | viability, T/C [23]: 99.3% | viability, T/C [24]: 88.4% | viability, T/C [25]: 90.5% | viability, T/C [26]: 88.8% | viability, T/C [27]: 98.6% | viability, T/C [28]: 91.3% | viability, T/C [29]: 97% | viability, T/C [30]: 102% | viability, T/C [31]: 107% | viability, T/C [32]: 101% | viability, T/C [33]: 98.2% | viability, T/C [34]: 98.8% | viability, T/C [35]: 96.4% | viability, T/C [36]: 82.6%

Source: PubChem BioAssay AID1963841 (Molecular Pharmacology Branch, DTP, NCI, 2024)
